The values below come from patent US20240270821A1, “GIP/GLP1/GCG TRI-RECEPTOR AGONISTS AND USES THEREOF” (priority 2023, published 2024).

Assay type in all cases: cell-based
Experiment [1] deals with T1, hGIPR (Homo sapiens, UniProt P48546).
T1 sequence (P48546 22-466): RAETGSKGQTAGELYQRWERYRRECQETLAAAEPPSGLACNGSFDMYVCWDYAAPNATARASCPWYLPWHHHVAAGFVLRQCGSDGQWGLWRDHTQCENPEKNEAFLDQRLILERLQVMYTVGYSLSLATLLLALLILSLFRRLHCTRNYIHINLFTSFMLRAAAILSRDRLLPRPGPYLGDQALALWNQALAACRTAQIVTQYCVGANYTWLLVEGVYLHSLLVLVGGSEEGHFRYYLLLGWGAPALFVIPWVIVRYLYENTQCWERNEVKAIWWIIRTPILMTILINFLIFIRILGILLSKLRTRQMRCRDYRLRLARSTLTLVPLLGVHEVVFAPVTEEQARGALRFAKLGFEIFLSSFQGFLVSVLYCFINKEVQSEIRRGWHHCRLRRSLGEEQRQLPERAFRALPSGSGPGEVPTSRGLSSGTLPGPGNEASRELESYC
Nature of the experiment: Functional cAMP activity in the presence of 1% HSA. As to conditions: read-out: cAMP Rel EC50, hGIPR.

Experiment [2] deals with T2, hGLP-1R (Homo sapiens, UniProt P43220). Briefly: Functional cAMP activity in the presence of 1% HSA. Conditions: read-out: cAMP Rel EC50, hGLP-1R.
T2 sequence (P43220 24-463): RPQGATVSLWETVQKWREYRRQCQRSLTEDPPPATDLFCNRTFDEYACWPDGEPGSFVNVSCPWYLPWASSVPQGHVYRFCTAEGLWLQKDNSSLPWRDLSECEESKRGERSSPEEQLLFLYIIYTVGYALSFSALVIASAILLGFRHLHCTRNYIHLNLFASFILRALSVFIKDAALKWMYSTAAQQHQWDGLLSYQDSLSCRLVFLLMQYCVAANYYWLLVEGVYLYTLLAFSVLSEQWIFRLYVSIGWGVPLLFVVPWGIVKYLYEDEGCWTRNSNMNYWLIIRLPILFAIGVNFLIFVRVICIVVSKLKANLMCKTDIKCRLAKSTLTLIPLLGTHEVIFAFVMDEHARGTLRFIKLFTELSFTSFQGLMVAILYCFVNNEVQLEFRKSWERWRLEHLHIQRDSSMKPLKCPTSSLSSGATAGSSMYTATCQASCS
The next experiment concerns the target human GcgR (Homo sapiens, UniProt P47871). Nature of the experiment: Functional cAMP activity in the presence of 1% HSA. As to conditions: read-out: cAMP Rel EC50, hGcgR.
Experiment [3] has as its target T1, hGIPR. Nature of the experiment: Functional cAMP activation in the presence of 0.1% casein (no HSA). As to conditions: read-out: Relative cAMP EC50, hGIPR.
Experiment [4] addresses T2, hGLP-1R. The experiment is described as above. Conditions: read-out: Relative cAMP EC50, hGLP-1R.
The target in another experiment is hGcgR (Homo sapiens, UniProt P47871). The experiment is described as above. As to conditions: read-out: Relative cAMP EC50, hGcgR.
hGcgR, sequence (P47871 26-477): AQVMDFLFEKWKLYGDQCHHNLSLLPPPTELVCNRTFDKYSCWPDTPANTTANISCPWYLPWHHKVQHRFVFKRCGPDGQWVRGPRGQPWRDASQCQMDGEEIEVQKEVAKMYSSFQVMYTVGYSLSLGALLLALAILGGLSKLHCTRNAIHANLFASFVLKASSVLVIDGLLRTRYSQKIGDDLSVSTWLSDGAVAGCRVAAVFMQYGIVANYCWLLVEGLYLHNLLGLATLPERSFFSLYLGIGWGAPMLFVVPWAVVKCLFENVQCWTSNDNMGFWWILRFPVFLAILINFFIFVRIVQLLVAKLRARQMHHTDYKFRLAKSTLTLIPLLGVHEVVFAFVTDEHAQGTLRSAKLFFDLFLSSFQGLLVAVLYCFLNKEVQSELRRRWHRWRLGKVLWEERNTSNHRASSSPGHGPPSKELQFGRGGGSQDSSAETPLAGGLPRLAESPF
The mark [5] stands for this setting: in the presence of 0.1% casein (no HSA), geometric mean.
[6] abbreviates: 0.1% casein, no HSA, geometric mean.

Where two headings read alike, the source gives them in different places. Starred links: 1 amine or outer side, 2 acyl side, 3 side chain; linkers in the order of their positions; H or OH if unused. Non-standard residues stand in square brackets, D forms with d. Residues, ends and D or L forms follow the SMILES beside them. Groups on a side chain read outwards from the residue. No end group written: not given here. *: point of attachment. C18 diacid = O=C(O)CCCCCCCCCCCCCCCCC(=O)*; αMePhe(2-F) = C[C@](N)(Cc1ccccc1F)C(=O)O; γGlu = O=C(O)[C@H](CCC(=O)[*:2])N[*:1]; αMe4Pal = C[C@](N)(Cc1ccncc1)C(=O)O; αMeY = C[C@](N)(Cc1ccc(O)cc1)C(=O)O; 4Pal = N[C@@H](Cc1ccncc1)C(=O)O; αMeL = CC(C)C[C@](C)(N)C(=O)O; αMeS = C[C@](N)(CO)C(=O)O; Orn = NCCC[C@H](N)C(=O)O; AEEA = NCCOCCOCC(=O)O; Aib = CC(C)(N)C(=O)O
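Throughout, for Relative cAMP EC50, hGIPR: intracellular cAMP rise after 30 min at 37 °C read by HTRF against a standard curve, scaled between buffer alone (0%) and top control ligand concentration (100%), four-parameter fit.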
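Throughout, for Relative cAMP EC50, hGLP-1R: intracellular cAMP rise after 30 min at 37 °C read by HTRF, normalized between buffer only (0%) and maximal control ligand (100%), four-parameter variable-slope fit.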
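Throughout, for Relative cAMP EC50, hGcgR: intracellular cAMP rise after 30 min at 37 °C, read by HTRF against a cAMP standard curve, scaled from buffer only (0%) to maximal control ligand response (100%).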

human GcgR, sequence (P47871 26-477): as above

Consider `CC[C@H](C)[C@H](NC(=O)[C@H](Cc1ccccc1)NC(=O)[C@H](CCCN)NC(=O)C(C)(C)NC(=O)[C@H](CCC(N)=O)NC(=O)[C@H](C)NC(=O)[C@H](CCCCNC(=O)CC[C@H](NC(=O)CC[C@H](NC(=O)CCCCCCCCCCCCCCCCC(=O)O)C(=O)O)C(=O)O)NC(=O)[C@H](CCCN)NC(=O)[C@H](CC(=O)O)NC(=O)[C@H](CC(C)C)NC(=O)[C@](C)(CC(C)C)NC(=O)[C@@H](NC(=O)[C@](C)(CO)NC(=O)[C@H](Cc1ccncc1)NC(=O)[C@H](CC(=O)O)NC(=O)[C@H](CO)NC(=O)[C@@H](NC(=O)[C@](C)(Cc1ccccc1F)NC(=O)[C@@H](NC(=O)CNC(=O)[C@H](CCC(N)=O)NC(=O)C(C)(C)NC(=O)[C@@H](N)Cc1ccc(O)cc1)[C@@H](C)O)[C@@H](C)O)[C@@H](C)CC)C(=O)N[C@H](CCC(=O)O)C(=O)N[C@@](C)(Cc1ccc(O)cc1)C(=O)N[C@@H](CC(C)C)C(=O)N[C@@H](CC(C)C)C(=O)N[C@@H](CCC(=O)O)C(=O)NCC(=O)NCC(=O)N1CCC[C@H]1C(=O)N[C@@H](CO)C(=O)N[C@@H](CO)C(=O)NCC(=O)N[C@@H](CCC(=O)O)C(=O)N1CCC[C@H]1C(=O)N1CCC[C@H]1C(=O)N1CCC[C@H]1C(=O)N[C@@H](CO)C(N)=O` [Example 374] (H-Y[Aib]QGT[αMePhe(2-F)]TSD[4Pal][αMeS]I[αMeL]LD[Orn]K([γGlu-γGlu-C18 diacid])AQ[Aib][Orn]FI[dE][αMeY]LLEGGPSSGEPPPS-NH2), for which the EC50 on hGIPR [1] is 2.28 nM; on hGLP-1R [2], 24.5 nM; at human GcgR, 65.4 nM; at hGIPR [3] (setting [5]) it was 0.0186 nM; at hGLP-1R [4] (setting [5]) it was 0.336 nM; on hGcgR (setting [5]), 0.908 nM.

As to “Y[Aib]QGT[αMePhe(2-F)]TSD[4Pal]SI[αMeL]LD[Orn]K([AEEA-γGlu-C18 diacid])AQ[αMe4Pal][Orn]FI[dE][αMeY]LIEGGPSSGEPPPEGT[dE]-NH2 [Example 691]”, the EC50 came out at 1.17 nM at hGIPR [1]; 28.9 nM on hGLP-1R [2]; 308 nM on human GcgR; 0.0117 nM at hGIPR [3]; 0.26 nM on hGLP-1R [4]; 2.46 nM at hGcgR.

With “Y[Aib]QGT[αMePhe(2-F)]TSD[4Pal][αMeS]I[αMeL]LD[Orn]QAQ[αMe4Pal]EFI[dE][αMeY]LIEGGPSSGAPPPSGGGE-NH2 [Example 1234]”, the EC50 on hGIPR [1] amounted to 0.011 nM; on hGLP-1R [2] it was 1.15 nM; at human GcgR, 11.7 nM; on hGIPR [3] (setting [6]) it was 0.0135 nM; on hGLP-1R [4] (setting [6]), 1.17 nM; at hGcgR (setting [6]), 11.6 nM.

Take “H-Y[Aib]QGTFTSD[4Pal]SQ[αMeL]LDKK([γGlu-γGlu-C18 diacid])AQ[αMe4Pal]AFIEYLIE[Aib]GPSSGAPPPSGSE-NH2 [Example 890]”: the concentration for a half-maximal effect (EC50) at hGIPR [1] was 14.2 nM; on hGLP-1R [2], 290 nM; on human GcgR, 559 nM; on hGIPR [3] (setting [5]), 0.113 nM; on hGLP-1R [4] (setting [5]), 3.19 nM; on hGcgR (setting [5]) it was 4.73 nM.

Turning to `CC[C@H](C)[C@H](NC(=O)[C@H](Cc1ccccc1)NC(=O)[C@H](C)NC(=O)C(C)(C)NC(=O)[C@H](CCC(N)=O)NC(=O)[C@H](C)NC(=O)[C@H](CCCCNC(=O)COCCOCCNC(=O)COCCOCCNC(=O)CC[C@H](NC(=O)CCCCCCCCCCCCCCCCC(=O)O)C(=O)O)NC(=O)[C@H](CCCCN)NC(=O)[C@H](CC(=O)O)NC(=O)[C@H](CC(C)C)NC(=O)[C@](C)(CC(C)C)NC(=O)[C@H](CCCN)NC(=O)[C@H](CO)NC(=O)[C@H](Cc1ccccc1)NC(=O)[C@H](CC(=O)O)NC(=O)[C@H](CO)NC(=O)[C@@H](NC(=O)[C@H](Cc1ccccc1)NC(=O)[C@@H](NC(=O)CNC(=O)[C@H](CCC(N)=O)NC(=O)C(C)(C)NC(=O)[C@@H](N)Cc1ccc(O)cc1)[C@@H](C)O)[C@@H](C)O)C(=O)N[C@@H](CCC(=O)O)C(=O)N[C@@H](Cc1ccc(O)cc1)C(=O)N[C@@H](CC(C)C)C(=O)N[C@@H](CC(C)C)C(=O)N[C@@H](CCC(=O)O)C(=O)N[C@H](C)C(=O)NCC(=O)N1CCC[C@H]1C(=O)N[C@@H](CO)C(=O)N[C@@H](CO)C(=O)NCC(=O)N[C@@H](C)C(=O)N1CCC[C@H]1C(=O)N1CCC[C@H]1C(=O)N1CCC[C@H]1C(=O)N[C@@H](CO)C(=O)NCC(=O)N[C@@H](CCC(=O)O)C(N)=O` [Example 128], the EC50 on hGIPR [1] was determined as 24.3 nM; at hGLP-1R [2], 679 nM; at human GcgR, 1090 nM; at hGIPR [3] (setting [5]), 0.307 nM; at hGLP-1R [4] (setting [5]) it was 3.5 nM; at hGcgR (setting [5]), 6.76 nM.

As for “Y[Aib]QGTFTSDFS[Orn][αMeL]LDKK([AEEA-γGlu-γGlu-C18 diacid])AQ[Aib]AFIEYLLAGGPSSGEPPPSGS-NH2 [Example 153]”, the EC50 came to 16.8 nM at hGIPR [1]; 488 nM at hGLP-1R [2]; 1210 nM on human GcgR; 0.218 nM on hGIPR [3] (setting [5]); 7.09 nM at hGLP-1R [4] (setting [5]); 14.7 nM at hGcgR (setting [5]).

Turning to `CC[C@H](C)[C@H](NC(=O)[C@H](Cc1ccccc1)NC(=O)[C@H](C)NC(=O)C(C)(C)NC(=O)[C@H](CCC(N)=O)NC(=O)[C@H](C)NC(=O)[C@H](CCCCNC(=O)CC[C@H](NC(=O)CC[C@H](NC(=O)CCCCCCCCCCCCCCCCC(=O)O)C(=O)O)C(=O)O)NC(=O)[C@H](CCCN)NC(=O)[C@H](CC(=O)O)NC(=O)[C@H](CC(C)C)NC(=O)[C@](C)(CC(C)C)NC(=O)[C@@H](NC(=O)[C@H](CO)NC(=O)[C@H](Cc1ccncc1)NC(=O)[C@H](CC(=O)O)NC(=O)[C@H](CO)NC(=O)[C@@H](NC(=O)[C@](C)(Cc1ccccc1F)NC(=O)[C@@H](NC(=O)CNC(=O)[C@H](CCC(N)=O)NC(=O)C(C)(C)NC(=O)[C@@H](N)Cc1ccc(O)cc1)[C@@H](C)O)[C@@H](C)O)[C@@H](C)CC)C(=O)N[C@@H](CCC(=O)O)C(=O)N[C@@H](Cc1ccc(O)cc1)C(=O)N[C@@H](CC(C)C)C(=O)N[C@@H](CCC(=O)O)C(=O)N[C@@H](CCC(=O)O)C(=O)NCC(=O)NCC(=O)N1CCC[C@H]1C(=O)N[C@@H](CO)C(=O)N[C@@H](CO)C(=O)NCC(=O)N[C@@H](C)C(=O)N1CCC[C@H]1C(=O)N1CCC[C@H]1C(=O)N1CCC[C@H]1C(=O)N[C@@H](CO)C(N)=O` [Example 441] (H-Y[Aib]QGT[αMePhe(2-F)]TSD[4Pal]SI[αMeL]LD[Orn]K([γGlu-γGlu-C18 diacid])AQ[Aib]AFIEYLEEGGPSSGAPPPS-NH2), the EC50 at hGIPR [1] was 1.96 nM; on hGLP-1R [2], 24.7 nM; on human GcgR, 855 nM; at hGIPR [3] it was 0.0239 nM; on hGLP-1R [4], 0.365 nM; at hGcgR, 8 nM.

For “H-Y[Aib]QGTFTSD[4Pal][αMeS]Q[αMeL]LD[Orn]K([dE-γGlu-C18 diacid])AQ[αMe4Pal]QFIQ[αMeY]LIE[Aib]GPSSGEPPPSGGGE-NH2 [Example 1183]”, the EC50 came out at 3.16 nM on hGIPR [1]; 53.6 nM on hGLP-1R [2]; 127 nM at human GcgR; 0.0484 nM at hGIPR [3] (setting [5]); 0.769 nM on hGLP-1R [4] (setting [5]); 1.38 nM on hGcgR (setting [5]).

Regarding “H-Y[Aib]QGTFTSD[4Pal]SQ[αMeL]LDKK([dE-γGlu-C18 diacid])AQ[αMe4Pal]AFIEYLIE[Aib]GPSSGAPPPSGS-NH2 [Example 920]”, the EC50 on hGIPR [1] stood at 9.05 nM; at hGLP-1R [2], 322 nM; at human GcgR, 1090 nM; at hGIPR [3] (setting [5]), 0.0905 nM; at hGLP-1R [4] (setting [5]) it was 2.28 nM; on hGcgR (setting [5]), 4.61 nM.

With “H-Y[Aib]QGTFTSD[4Pal]SQ[αMeL]LDKK([γGlu-γGlu-C18 diacid])AQ[Aib]AFIE[αMeY]LLEGGPSSGAPPPSGSEE-NH2 [Example 945]”, the EC50 came out at 42.5 nM on hGIPR [1]; 555 nM at hGLP-1R [2]; 2420 nM on human GcgR; 0.246 nM at hGIPR [3] (setting [5]); 3.9 nM at hGLP-1R [4] (setting [5]); 18 nM on hGcgR (setting [5]).

Take “H-Y[Aib]QGT[αMePhe(2-F)]TSD[4Pal]SI[αMeL]LD[Orn]K([γGlu-γGlu-C18 diacid])AQ[αMe4Pal]EFI[dE][αMeY]LQEGGPSSGAPPPSGS-NH2 [Example 647]”: the EC50 at hGIPR [1] was found to be 0.691 nM; at hGLP-1R [2], 36.1 nM; on human GcgR, 1210 nM; at hGIPR [3], 0.0177 nM; on hGLP-1R [4] it was 0.872 nM; at hGcgR, 18.8 nM.

With “H-Y[Aib]QGTFTSD[4Pal]SQ[αMeL]LDKK([AEEA-γGlu-C18 diacid])AQ[Aib]AFIEYLLE[dA]GPSS[Aib]APPPSGT-NH2 [Example 824]”, the 50% effective concentration (EC50) is 28.9 nM on hGIPR [1]; 343 nM at hGLP-1R [2]; 1110 nM at human GcgR; 0.123 nM at hGIPR [3] (setting [5]); 2.43 nM on hGLP-1R [4] (setting [5]); 7.92 nM at hGcgR (setting [5]).

For orientation: EC50 means the midpoint of the concentration-response curve.
